PMC10539439 (Pharmacological Reports, 2023)
Where “and” joins values, the source holds several entries; their conditions need not be identical. Equal values may be shown once. Read-outs that look alike come from different tables or passages of the source.

Experiments:
[1] = Pharmacokinetics in plasma after ip administration; format: in vivo, rat; settings: plasma; for concentration in plasma (single sample): individual samples 1-3
Experimental: (§1) For the pharmacokinetic study, a group of 56 adult male rats (Wistar, 220–250 g, […]) were used in the experiment. Animals were purchased from the Animal House of the Faculty of Pharmacy of Jagiellonian University Medical College, Krakow, Poland. During the habituation period, the groups of 4 rats were kept in a plastic cage at a controlled room temperature (22 ± 2 ℃), humidity (55 ± 10%), full-spectrum cold white light (350–400 lx), in 12 h light/dark cycles (the lights on at 7:00 am, and off at 19:00 pm), and had free access to standard laboratory pellet and tap water. […] These were then given through an intraperitoneally injections (ip) at a dose of 0.3 mg/kg and 0.4 mg/kg, respectively. Blood samples were collected at 0 min (predose), 5 min, 15 min, 30 min, 60 min, 120 min, and 240 min after compound administration. Blood and brain samples were collected under general anesthesia induced by ip injections of 50 mg/kg ketamine plus 8 mg/kg xylazine. Blood samples were taken in heparinized tubes and immediately centrifuged at 3500 rpm for 10 min, and plasma was collected. Brain and plasma samples were immediately frozen at – 80 ℃ for LC/MS/MS analysis. All experimental procedures were carried out according to EU Directive 2010/63/EU and approved by the I Local Ethics Committee for Animal Experiments of the Jagiellonian University in Krakow, Poland (No. 94/2016).
(§2) The pharmacokinetic parameters were calculated using a non-compartmental approach from the average concentration values, using Phoenix WinNonlin software (Certara, Princeton, NJ 08540 USA). The first-order elimination rate constant (λz) was calculated by linear regression of time versus log concentration. Next, the area under the mean plasma and the concentration in the brain versus the time curve (AUC0→t) were estimated using the log-linear trapezoidal rule (Eq. 1), where Cn is the concentration of the last sampling of each compound1 AUC0→t=∑i=1n(Ci+Ci+1)/2·ti+1-ti+Cn/λz.
The area under the first-moment curve (AUMC0→t) was estimated by calculating of the total area under the first-moment curve using Eq. 2, where tn is the time of last sampling2 AUMC0→t=∑i=1n(ti·Ci+ti+1·Ci+1)/2·ti+1-ti+(tn·Cn)/λz+Cn/λz2.
Mean residence time (MRT, Eq. 3) was calculated as3 MRT=AUMC0→t/AUC0→t.
Total clearance (ClT, Eq. 4) was calculated as4 C1T=F·Di.p./AUC0→t.
(§3) The quantification of compounds in plasma and brain samples was performed using the Sciex API 3200 triple quadrupole mass spectrometer (Concord, Ontario, Canada) equipped with an electrospray (ESI) ionization interface. This instrument was coupled to an Elite LaChrom (Hitachi, USA) HPLC system. Data acquisition and processing were performed using Sciex Analyst 1.5.2 data collection and integration software. After preparation, the samples were injected (20 µL) onto XBridge C18 (2.1 mm × 30 mm, 3.5 μm, Waters, Milford, Massachusetts, USA) analytical column. The mobile phase consisted of 0.1% formic acid in acetonitrile (A) and 0.1% formic acid in water (B) was delivered in a gradient elution starting with 90% of eluent B, increasing for 2 min to 90% of eluent A, maintained for 3 min, and then returned for 5 min to 90% of eluent B, and maintained 90% of eluent B during 5 min at a flow rate of 300 µL/min. The total analysis time was 10 min. […] The ion spray source settings were as follows: spray voltage: 5.5 kV, heater temperature: 400 °C, curtain gas: 10 psi, source gas 1: 20 psi, and source gas 2: 20 psi.
Further dilutions were performed using the same solvent to prepare working standard solutions of the analyte at the following concentrations: 0.025, 0.05, 0.1, 0.25, 0.5, 1.0, 2.5, 5.0, 10, 25, and 50 µg/mL for calibration curve samples (CC) and 0.025, 0.075, 2.2, and 4.5 µg/mL for quality control samples (QC). […]

[2] = Distribution in brain after ip administration; format: in vivo, rat; settings: brain; for concentration in brain (single sample): individual samples 1-3
Experimental: as §1, with “Poland.” for “Poland. During the habituation period, the groups of 4 rats were kept in a plastic cage at a controlled room temperature (22 ± 2 ℃), humidity (55 ± 10%), full-spectrum cold white light (350–400 lx), in 12 h light/dark cycles (the lights on at 7:00 am, and off at 19:00 pm), and had free access to standard laboratory pellet and tap water.”
as §2, §3
Further dilutions were performed using the same solvent to prepare working standard solutions of the analyte at the following concentrations: 0.025, 0.05, 0.1, 0.25, 0.5, 1.0, 2.5, 5.0, 10, 25, and 50 µg/mL for calibration curve samples (CC) and 0.025, 0.075, 2.2, and 4.5 µg/mL for quality control samples (QC). To prepare samples for calibration curve or quality control samples, 45 µL of the matrix (plasma or brain homogenate) was added with 5 µL of internal standard solution (1 µg/mL) obtaining the final concentration of 100 ng/mL and 5 µL of standard working solutions at the needed CC or QC concentration levels. After the addition of the standard solution, the samples were mixed and purified.
A sample volume of 50 µL of plasma or brain homogenate was transferred to the clean Eppendorf tube and spiked with 5 µL of IS solution (1 µg/mL) obtaining the final concentration of 100 ng/mL. After 5 min of mixing (1500 rpm) proteins were precipitated using 200 µL ACN. After 10 min of sample shaking (1500 rpm), the incubation step was performed (10 min, 4 °C). The samples were then centrifuged (10,000 rpm, 10 min, 4 °C) and the supernatant was transferred to chromatographic vials for LC/MS/MS analysis.

TAAR1 = target: T1, TAAR1 (Homo sapiens, UniProt Q96RJ0); assay: Intrinsic activity, Hit Hunter cAMP assay; format: cell-based
T1 sequence (Q96RJ0 1-339): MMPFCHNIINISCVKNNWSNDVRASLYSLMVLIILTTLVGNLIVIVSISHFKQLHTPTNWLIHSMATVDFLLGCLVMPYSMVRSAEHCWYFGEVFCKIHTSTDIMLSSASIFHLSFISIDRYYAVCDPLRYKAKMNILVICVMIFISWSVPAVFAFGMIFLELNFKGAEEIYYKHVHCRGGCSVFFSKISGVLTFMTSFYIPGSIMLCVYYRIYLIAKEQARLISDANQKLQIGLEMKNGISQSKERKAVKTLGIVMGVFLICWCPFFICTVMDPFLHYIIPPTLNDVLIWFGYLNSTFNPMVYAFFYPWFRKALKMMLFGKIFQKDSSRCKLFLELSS
Experimental: The intrinsic activity study at cells with overexpression of TAAR1 (Eurofins, cat. No. 95-0173C2) was carried out at Eurofins Discoveries (Fremont, USA) using the Hit Hunter cAMP method. This assay monitors the activation of a GPCR via Gi and Gs secondary messenger signaling in a homogenous, non-imaging assay format using a technology developed by DiscoverX called Enzyme Fragment Complementation (EFC) with β-galactosidase (β-Gal) as the functional reporter. The enzyme is split into two complementary portions: EA for Enzyme Acceptor and ED for Enzyme Donor. ED is fused to cAMP and in the assay competes with cAMP generated by cells for binding to a cAMP-specific antibody. Active β-Gal is formed by complementation of exogenous EA to any unbound EDcAMP.
cAMP Hunter cell lines were expanded from freezer stocks according to standard procedures. Cells were seeded in a total volume of 20 µL into white-walled, 384-well microplates and incubated at 37 ℃ for the appropriate time prior to testing. For agonist determination, cells were incubated with a sample to induce a response. Media was aspirated from cells and replaced with 15 µL 2:1 HBSS/10 mM Hepes:cAMP XS + Ab reagent. Intermediate dilution of sample stocks was performed to generate 4X samples in assay buffer. 5 µL of 4 × sample was added to cells and incubated at 37 ℃ or room temperature for 30 or 60 min. Vehicle concentration was 1%. […] Microplates were read following signal generation with a PerkinElmer Envision instrument for chemiluminescent signal detection.

[3] = cAMP, Agonist, Conc(M) 1.00E-07

Cl.N=C(N)N/N=C/c1c(Cl)cc(O)cc1Cl [HGB]
concentration in plasma (single sample) ([1]; 5 min): 41.279 ng/mL and 54.6155 ng/mL and 66.8757 ng/mL | concentration in plasma (mean) ([1]; 5 min after administration): 54.2567 ng/mL | concentration in plasma (single sample) ([1]; 15 min): 105.888 ng/mL and 100.591 ng/mL and 95.109 ng/mL | concentration in plasma (mean) ([1]; 15 min after administration): 100.53 ng/mL | concentration in plasma (single sample) ([1]; 30 min): 16.0042 ng/mL and 23.9125 ng/mL and 20.5783 ng/mL | concentration in plasma (mean) ([1]; 30 min after administration): 20.165 ng/mL | concentration in plasma (single sample) ([1]; 60 min): 44.699 ng/mL and 41.9435 ng/mL and 39.1715 ng/mL | concentration in plasma (mean) ([1]; 60 min after administration): 41.938 ng/mL | concentration in plasma (single sample) ([1]; 120 min): 10.1897 ng/mL and 6.772 ng/mL and 9 ng/mL | concentration in plasma (mean) ([1]; 120 min after administration): 8.6536 ng/mL | concentration in plasma (single sample) ([1]; 240 min): 5.591 ng/mL and 8.595 ng/mL and 5.3874 ng/mL | concentration in plasma (mean) ([1]; 240 min after administration): 6.524 ng/mL | concentration in brain (single sample) ([2]; 5 min): 14.9497 ng/g and 11.5414 ng/g and 13.5496 ng/g | concentration in brain (mean) ([2]; 5 min after administration): 13.3469 ng/g | concentration in brain (single sample) ([2]; 15 min): 59.5505 ng/g and 64.4857 ng/g and 70.3065 ng/g | concentration in brain (mean) ([2]; 15 min after administration): 64.7809 ng/g | concentration in brain (single sample) ([2]; 30 min): 29.8349 ng/g and 23.7225 ng/g and 18.0636 ng/g | concentration in brain (mean) ([2]; 30 min after administration): 23.8737 ng/g | concentration in brain (single sample) ([2]; 60 min): 5.077 ng/g and 3.611 ng/g and 4.9468 ng/g | concentration in brain (mean) ([2]; 60 min after administration): 4.545 ng/g | concentration in brain (single sample) ([2]; 120 min): 3.263 ng/g and 4.746 ng/g and 3.8221 ng/g | concentration in brain (mean) ([2]; 120 min after administration): 3.944 ng/g | concentration in brain (single sample) ([2]; 240 min): 2.689 ng/g and 4.759 ng/g and 2.17 ng/g | concentration in brain (mean) ([2]; 240 min after administration): 3.206 ng/g

Clc1cccc(N2CCNCC2)c1 [mCPP, 1-(3-Chlorophenyl)piperazine]
EC50 (TAAR1): 237 µM | Intrinsic activity at TAAR1 (in words) (TAAR1): weak agonistic activity | Average Value (raw signal) (TAAR1; cAMP, Agonist, Conc(M) 1e-6): 1440.00 | Value 1 / Value 2 (raw signal) (TAAR1; cAMP, Agonist, Conc(M) 1e-6): 1520 and 1360 | Average Value (raw signal) (TAAR1; cAMP, Agonist, Conc(M) 1e-5): 1660.00 | Value 1 / Value 2 (raw signal) (TAAR1; cAMP, Agonist, Conc(M) 1e-5): 1520 and 1800 | Average Value (raw signal) (TAAR1; cAMP, Agonist, Conc(M) 0.0001): 2760.00 | Value 1 / Value 2 (raw signal) (TAAR1; cAMP, Agonist, Conc(M) 0.0001): 2560 and 2960 | Emax at 100 µM (TAAR1; cAMP, Agonist, Conc(M) 0.0001 (10^–4 M), read-out: % Efficacy (of the full agonist tyramine)): 34% | Average Value (raw signal) (TAAR1; [3]): 1260.00 | Value 1 / Value 2 (raw signal) (TAAR1; [3]): 1440 and 1080

NCCc1ccc(O)cc1 [p-Tyramine]
Curve Bottom (TAAR1; cAMP, Agonist): -5.337 | Curve Top (TAAR1; cAMP, Agonist): 100.3 | Hill (TAAR1; cAMP, Agonist): 1.0838 | Raw Value (TAAR1; cAMP, Agonist, Conc 0.0254026): 800 and 1040 | Raw Value (TAAR1; cAMP, Agonist, Conc 0.0762079): 1080 and 1160 | Percent Efficacy (TAAR1; cAMP, Agonist, Conc 0.228624): 12.1951 and 16.0976 | Raw Value (TAAR1; cAMP, Agonist, Conc 0.228624): 1640 | Percent Efficacy (TAAR1; cAMP, Agonist, Conc 0.685871): 41.0732 and 48.8781 | Raw Value (TAAR1; cAMP, Agonist, Conc 0.685871): 3120 and 3520 | Percent Efficacy (TAAR1; cAMP, Agonist, Conc 2.05761): 73.0732 and 71.5122 | Raw Value (TAAR1; cAMP, Agonist, Conc 2.05761): 4760 and 4680 | Percent Efficacy (TAAR1; cAMP, Agonist, Conc 6.17284): 84.7805 and 92.5854 | Raw Value (TAAR1; cAMP, Agonist, Conc 6.17284): 5360 and 5760 | Percent Efficacy (TAAR1; cAMP, Agonist, Conc 18.5185): 89.4634 and 99.6098 | Raw Value (TAAR1; cAMP, Agonist, Conc 18.5185): 5600 and 6120 | Percent Efficacy (TAAR1; cAMP, Agonist, Conc 55.5556): 100.39 and 104.293 | Raw Value (TAAR1; cAMP, Agonist, Conc 55.5556): 6160 and 6360 | Percent Efficacy (TAAR1; cAMP, Agonist, Conc 166.667): 105.073 and 97.2683 | Raw Value (TAAR1; cAMP, Agonist, Conc 166.667): 6400 and 6000 | Percent Efficacy (TAAR1; cAMP, Agonist, Conc 500): 107.415 and 90.2439 | Raw Value (TAAR1; cAMP, Agonist, Conc 500): 6520 and 5640 | Emax (TAAR1; cAMP, Agonist, read-out: Max Response): 101% | EC50 (TAAR1; cAMP, Agonist, read-out: RC50 (Result Type EC50)): 0.802 µM
